{"source": "patent US20220000117A1", "about": "“METHOD FOR CONTROLLING DISEASES IN SMALL GRAIN CEREALS, SEED OF SMALL GRAIN CEREALS, AND METHOD FOR SUPPRESSING LODGING DAMAGE IN SMALL GRAIN CEREALS” (KUMIAI CHEMICAL INDUSTRY CO., LTD., priority 2019, published 2022)", "key": {"powdery mildew [1]": {"tested_on": "powdery mildew", "experiment": "Test Example 1: control test of wheat powdery mildew, field, wheat variety Haruyutaka", "format": "in vivo, Blumeria graminis", "settings": "Foliage Treatment, flag leaves, 79 days after seeding", "description": "Seed of wheat (variety: Haruyutaka) sterilized in advance with commercial Benlate T wettable powder 20 (“Benlate” is a registered trademark) was used. In Example 1, seed having a mass of 1 kg was mixed into 100 ml of suspension water containing 5 g of dichlobentiazox, air-dried, and then, stripe-sown in a field with a furrow width of 30 cm and a ratio of 163 kg/ha (417 seeds/m^2). In contrast, in Comparative Example 1, seed which had not treated with dichlobentiazox was sown in a field in the same manner, and a spray solution corresponding to that obtained by suspending 500 g of dichlobentiazox in 200 liters of water per 1 ha was sprayed on foliage of wheat three times, during an ear emergence period (63 days after seeding), a flowering period (70 days after seeding), and a flowering end period (77 days after seeding). Similarly, in place of 500 g of dichlobentiazox in Comparative Example 1, 250 g of azoxystrobin (commercial Amistar 20 flowable was used. “Amistar” is a registered trademark) was used in Comparative Example 2, and 125 g of propiconazole (commercial Tilt emulsifiable concentrate 25 was used, “Tilt” is a registered trademark) was used in Comparative Example 3. The presence or absence of disease occurrence and a lesion area ratio of powdery mildew in flag leaves of 30 stems were investigated 79 days after seeding according to the criteria in Table 1, and a disease leaf rate and the degree of disease occurrence were calculated by the following calculation formula (1).\n(§1) Degree of Disease Occurrence=Σ(Index×Number of Leaves of Index)/(4×Number of Investigated Leaves)×100 (1)"}, "septoria leaf blotch": {"tested_on": "septoria leaf blotch", "experiment": "Test Example 7: control test of septoria leaf blotch of wheat, field, wheat variety TRAPEZ", "format": "in vivo, Septoria tritici", "settings": "for Degree of Disease Occurrence: flag leaves, 219 days after seeding", "description": "as §1\nSeed of wheat (variety: TRAPEZ) was used. On seed having a mass of 1 kg, 20 ml of suspension water containing 0.5 g or 5 g of dichlobentiazox or isotianil was sprayed. In Examples 16, 17, and 18, the seed treated with the chemical was stripe-sown with a ratio of 100 kg/ha. In contrast, in Comparative Example 17, seed which had not treated with dichlobentiazox or isotianil was sown in a field in the same manner, and a spray solution corresponding to that obtained by suspending 750 g of chlomthalonil (commercial FUNGISTOP was used, “FUNGISTOP” is a registered trademark) in 200 liters of water per 1 ha was sprayed on foliage of wheat 154 days and 184 days after seeding. The severity of disease occurrence of septoria leaf blotch in flag leaves of 25 stems was investigated 219 days after seeding according to the criteria in Table 1, and the degree of disease occurrence was calculated by the above calculation formula (1)."}, "powdery mildew [2]": {"tested_on": "powdery mildew", "experiment": "Test Example 5: control test of wheat powdery mildew, field, wheat variety Haruyutaka", "format": "in vivo, Blumeria graminis", "settings": "for Degree of Disease Occurrence / Disease Leaf Rate (%): Seed Treatment 2.5 g/Seed 1 kg (250 g/ha), leaves just below flag leaves, 85 days after seeding", "description": "as §1\nSeed of wheat (variety: Haruyutaka) sterilized in advance with commercial Benlate T wettable powder 20 (“Benlate” is a registered trademark) was used. In Examples 12, 13, and 14, seed having a mass of 1 kg was mixed into 50 ml of suspension water containing 2.5 g or 1.25 g of dichlobentiazox or 50 ml of suspension water containing 2.5 g of isotianil, air-dried, and then, stripe-sown in a field with a furrow width of 30 cm and a ratio of 100 kg/ha (300 seeds/m^2). Moreover, in Comparative Example 14, seed having a mass of 1 kg was mixed into 50 ml of suspension water containing 2.5 g of tiadinil (commercial V-GET flowable was used, “V-GET” is a registered trademark), air-dried, and then, stripe-sown in a field with a furrow width of 30 cm and a ratio of 100 kg/ha (300 seeds/m^2). The presence or absence of disease occurrence and a lesion area ratio of powdery mildew in leaves just below hag leaves (next leaves) of 30 stems were investigated 85 days after seeding by according to the criteria in Table 1, and a disease leaf rate and the degree of disease occurrence were calculated by the above calculation formula(1)."}, "powdery mildew [3]": {"tested_on": "powdery mildew", "experiment": "Test Example 3: control test of wheat powdery mildew, cup in greenhouse, inoculated", "format": "in vivo, Blumeria graminis", "design": "key to Degree of Disease Occurrence: Σ(index×no. leaves of index)/(4×no. investigated leaves)×100", "settings": "for Degree of Disease Occurrence: 19 days after seeding", "description": "as §1\n(§2) Seed having a mass of 1 kg of wheat (variety: Norin No. 61) was mixed into 100 ml of suspension water containing 5 g or 0.5 g of dichlobentiazox or isotianil and air-dried, and then, 12 seeds were sown in a plastic cup having a diameter of 6 cm containing river sand and managed in a greenhouse. The number of emerged seeds was investigated nine days after seeding, and an emergence rate was calculated (Examples 6 to 9). In Comparative Examples 6 to 9, 20 ml of suspension water of an active ingredient, which had been adjusted to have a concentration shown in Table 4, was sprayed in a frame of 45 cm×45 cm in which a pot of wheat seedlings was placed (corresponding to 1000 L/ha) 14 days after seeding. On day 14 after seeding, conidiospores of powdery mildew were sifted over leaves of wheat seedlings and inoculated onto the leaves (after the sprayed liquid was dried in the case of Comparative Examples), a lesion area ratio of powdery mildew in a first leaf was investigated 19 days after seeding according to the criteria in Table 1, and the degree of disease occurrence was calculated by the above calculation formula (1)."}, "[4]": {"tested_on": "wheat (variety: Norin No. 61)", "experiment": "Test Example 3: emergence rate of wheat seed", "format": "in vivo", "description": "as §2"}, "[5]": {"tested_on": "wheat (variety: Norin No. 61)", "experiment": "Test Example 2: emergence rate of treated wheat seed", "format": "in vivo", "settings": "10 days after seeding", "description": "(§3) Seed having a mass of 1 kg of wheat (variety: Norin No. 61) was mixed into 100 ml of suspension water containing 5 g or 0.5 g of dichlobentiazox or isotianil (commercial Routine flowable was used, “Routine” is a registered trademark) and air-dried, and then, 15 seeds were sown in a plastic pot of 9 cm×9 cm containing horticultural soil and managed in a greenhouse. The number of emerged seeds was investigated 10 days after seeding, and an emergence rate was calculated (Examples 2 to 5). On day 49 after seeding, conidiospores of powdery mildew were sifted over leaves of wheat seedlings and inoculated onto the leaves, a lesion area ratio of powdery mildew in a first leaf was investigated 59 days after seeding according to the criteria in Table 1, and the degree of disease occurrence was calculated by the above calculation formula (1)."}, "powdery mildew [6]": {"tested_on": "powdery mildew", "experiment": "Test Example 2: control test of wheat powdery mildew, pot in greenhouse, inoculated, wheat variety Norin No. 61", "format": "in vivo, Blumeria graminis", "settings": "for Degree of Disease Occurrence: inoculated day 49, first leaf, 59 days after seeding", "description": "as §1, §3"}, "[7]": {"tested_on": "wheat (variety: Haruyutaka)", "experiment": "Test Example 6: evaluation test of shortening of wheat (culm length, seed yield), field", "format": "in vivo", "settings": "Propiconazole foliage spray 125 g/ha three times only, no seed treatment"}, "[8]": {"settings": "Seed Treatment 0.5 g/Seed 1 kg (50 g/ha)"}, "[9]": {"settings": "Seed Treatment 5 g/Seed 1 kg (500 g/ha)"}}}
{"smiles": "CO/C=C(/C(=O)OC)c1ccccc1Oc1cc(Oc2ccccc2C#N)ncn1", "note": "[Azoxystrobin, azoxystrobin, reference compound]", "values": [{"measurement": "Degree of Disease Occurrence", "setting": "powdery mildew [1]; spray 250 g/ha three times", "result": 17.6}, {"measurement": "Disease Leaf Rate (%)", "setting": "powdery mildew [1]; spray 250 g/ha three times", "result": 90.0, "unit": "%"}]}
{"smiles": "N#Cc1c(Cl)c(Cl)c(Cl)c(C#N)c1Cl", "note": "[Chlorothalonil, chlorothalonil, reference compound]", "values": [{"measurement": "Degree of Disease Occurrence", "setting": "septoria leaf blotch; Foliage Treatment, spray 750 g/ha two times (154 and 184 days after seeding)", "result": 3.1}]}
{"smiles": "N#Cc1ccccc1NC(=O)c1snc(Cl)c1Cl", "note": "[Compound (10), Isotianil]", "values": [{"measurement": "Degree of Disease Occurrence", "setting": "septoria leaf blotch; [8]", "result": 2.1}, {"measurement": "disease occurrence of septoria leaf blotch, seed treatment compared with foliage spraying of chlorothalonil", "setting": "septoria leaf blotch; seed treatment", "result": "more suppressed"}, {"measurement": "Degree of Disease Occurrence", "setting": "powdery mildew [2]", "result": 1.0}, {"measurement": "Disease Leaf Rate (%)", "setting": "powdery mildew [2]", "result": 4.4, "unit": "%"}, {"measurement": "disease occurrence of powdery mildew, seed treatment compared with seed treatment with tiadinil", "setting": "powdery mildew [2]; seed treatment", "result": "suppresses the disease occurrence of powdery mildew lower"}, {"measurement": "Degree of Disease Occurrence", "setting": "powdery mildew [3]; Foliage Treatment, spray 50 ppm suspension water (50 g/ha) day 14, first leaf", "result": 47.2}, {"measurement": "Degree of Disease Occurrence", "setting": "powdery mildew [3]; Foliage Treatment, spray 500 ppm suspension water (500 g/ha) day 14, first leaf", "result": 27.8}, {"measurement": "Degree of Disease Occurrence", "setting": "powdery mildew [3]; Seed Treatment 0.5 g/Seed 1 kg (50 g/ha), inoculated day 14, first leaf", "result": 23.5}, {"measurement": "Degree of Disease Occurrence", "setting": "powdery mildew [3]; Seed Treatment 5 g/Seed 1 kg (500 g/ha), inoculated day 14, first leaf", "result": 4.4}, {"measurement": "disease occurrence of powdery mildew, seed treatment compared with spraying on foliage during a growing period", "setting": "powdery mildew [3]; seed treatment", "result": "suppressed lower"}, {"measurement": "Emergence Rate (%)", "setting": "[4]; Foliage Treatment group, spray 50 ppm (50 g/ha) 14 days after seeding, emergence counted nine days after seeding", "result": 97, "unit": "%"}, {"measurement": "Emergence Rate (%)", "setting": "[4]; Foliage Treatment group, spray 500 ppm (500 g/ha) 14 days after seeding, emergence counted nine days after seeding", "result": 100, "unit": "%"}, {"measurement": "Emergence Rate (%)", "setting": "[4]; Seed Treatment 0.5 g/Seed 1 kg (50 g/ha), nine days after seeding", "result": 100, "unit": "%"}, {"measurement": "Emergence Rate (%)", "setting": "[4]; Seed Treatment 5 g/Seed 1 kg (500 g/ha), nine days after seeding", "result": 83.3, "unit": "%"}, {"measurement": "Emergence Rate (%)", "setting": "[5]; [8]", "result": 96, "unit": "%"}, {"measurement": "Emergence Rate (%)", "setting": "[5]; [9]", "result": 100, "unit": "%"}, {"measurement": "Degree of Disease Occurrence", "setting": "powdery mildew [6]; [8]", "result": 7.6}, {"measurement": "Degree of Disease Occurrence", "setting": "powdery mildew [6]; [9]", "result": 7.1}, {"measurement": "disease occurrence under artificial inoculation of powdery mildew", "setting": "powdery mildew [6]; seed treatment", "result": "the disease occurrence was suppressed"}]}
{"smiles": "CCCC1COC(Cn2cncn2)(c2ccc(Cl)cc2Cl)O1", "note": "(stereo not shown) [Propiconazole, propiconazole, reference compound]", "values": [{"measurement": "Culm Length (cm)", "setting": "[7]; harvested 106 days after seeding", "result": 82.5, "unit": "cm"}, {"measurement": "Seed Yield", "setting": "[7]; wheat in 3 m2, 106 days after seeding", "result": 990, "unit": "g"}, {"measurement": "Degree of Disease Occurrence", "setting": "powdery mildew [1]; spray 125 g/ha three times", "result": 4.4}, {"measurement": "Disease Leaf Rate (%)", "setting": "powdery mildew [1]; spray 125 g/ha three times", "result": 32.2, "unit": "%"}]}
{"smiles": "Cc1ccc(NC(=O)c2snnc2C)cc1Cl", "note": "[Tiadinil, tiadinil, reference compound]", "values": [{"measurement": "Degree of Disease Occurrence", "setting": "powdery mildew [2]", "result": 11.0}, {"measurement": "Disease Leaf Rate (%)", "setting": "powdery mildew [2]", "result": 33.3, "unit": "%"}]}
